Results as given in ChEMBL document CHEMBL3507680, “University of Dundee, Gates Library screen for HepG2 cell viability”.

Test: Human HepG2 cell viability assay in 384 well format
Type: toxicity, cell-based
Set-up: dose 125 nL, time 70.5 hour; cytotoxicity at 70.5 h: concentration not given beside the values
Conditions: HepG2 cells, read-out: Inhibition

Structure (SMILES) | cytotoxicity at 70.5 h [%]
Cc1cc(NC(=O)CNc2cccc(C(=O)N3CCCC(O)C3)c2)no1 (configuration not stated) | -3.66
CN(Cc1nc2ccccc2o1)CC1CCCN1c1cccnn1 (configuration not stated) | 7.03
CNc1ncccc1C(=O)N1CCc2c(nc(N)[nH]c2=O)C1 | -3.13
CC(C)n1nc2c(cc1=O)CN(c1ncnc3sccc13)CC2 | -10.1
O=C(c1ccccc1)N(CC1CC1)c1cccnc1 | -1.58
CC(C)(C)Oc1ccc(CN)c(C(F)(F)F)c1 | 6.84
Cc1nn(C2CCS(=O)(=O)C2)c(C)c1CC(=O)NCc1ccccc1Cl (configuration not stated) | -4.52
O=C(NCCn1cccc1)C(c1ccccc1)N1CCCC1 (configuration not stated) | 1.81
COCC(=O)NC[C@H]1C[C@@H]2CCN1C[C@@H]2c1cc(-c2cccs2)nn1C | -7.87
CCn1[nH]c(C)c2c(C(F)(F)C(F)(F)F)cc(=O)nc1-2 | -1.83
CCn1ncnc1CN(CCOC)Cc1ccc(C)cc1 | -4.05
Cc1cc(C)c(CNC(=O)N(C)Cc2ccc3c(c2)OCO3)c(=O)[nH]1 | -3.96
CN1CCN(C2CCN(Cc3noc(C(C)(C)C)n3)CC2)C1=O | 9.12
Cc1cn(-c2ccccc2)nc1NS(=O)(=O)c1cc(C(=O)O)cs1 | 14.9
Cc1ccc(CCC(=O)N(C)CCN2CCOCC2)c(C)c1 | -0.456
Cc1noc(C)c1C(=O)N1Cc2ncn(C)c2C(COCC2CC2)C1 (configuration not stated) | -7.58
COc1ccc(C(=O)N(Cc2cnn(C)c2)C(C)C)cc1Br | -9.53
CCC(CO)N(Cc1cccnc1)C(=O)c1ccc(C(F)(F)F)nc1O (configuration not stated) | -18.7
Cn1cc(C2CC(=O)NC23CCN(Cc2cccc(F)c2)CC3)cn1 (configuration not stated) | -0.799
O=C1NCc2ccccc2CC12CCCN(Cc1ccsc1)C2 (configuration not stated) | 2.74
Cc1ccccc1C(C(=O)N(C)CCc1cnn(C)c1)N(C)C (configuration not stated) | -0.295

Structure (SMILES) | cytotoxicity at 70.5 h [%]
c1ccc(N2CCC(NCc3cccc4cn[nH]c34)C2)cc1 (configuration not stated) | 7.7
O=C(CN1CCCCCC1)N1CCc2nnc(C3CCCNC3)n2CC1 (configuration not stated) | 16
CCN(Cc1cccc(Cl)c1)Cc1ncc(C(C)(C)C)o1 | -1.17
CN1CCN(Cc2ccco2)Cc2cccnc21 | 0
CN(C)c1cc(C2CCCN2)ccn1 (configuration not stated) | 0.143
CN(Cc1noc(C2CC2)n1)C1CCN(CCS(C)(=O)=O)C1 (configuration not stated) | -3.36
CC(C)Nc1nc2c(cc1C(=O)NCC1CC1)CCNCC2 | -10
CSCc1noc(CN2CC3(CCCC3)CC2=O)n1 | -7.21
Cn1cc(N2C(=O)CC[C@@H]3[C@H]2CCN3Cc2ccncc2)cn1 | 6.03
CCOCC1CN(Cc2cnn(C)c2)Cc2ncn(CC3CC3)c21 (configuration not stated) | 23.1
Cc1nc(N2CCCC(C)C2)nc2cc(S(C)(=O)=O)ccc12 (configuration not stated) | -2.18
Cc1ccc(O)c(CNc2cccc(CN3CCN(C)CC3)c2)n1 | -0.441
CCOc1ccnc(N2CCN(C(=O)c3ccoc3C)CC2)n1 | -3.63
CN1CC=C(c2noc(CCC(=O)N3CCc4ccccc4C3)n2)CC1 | -15
COCC1CCN(S(=O)(=O)NCC2COc3ccccc3C2)CC1 (configuration not stated) | 13.9
CC1CCN(C(=O)CSc2nc3c(cnn3CCO)c(=O)[nH]2)CC1 | 22.7
CC(Cn1cccn1)NCC(=O)NCCc1cccs1 (configuration not stated) | -4.39
CCc1nnc(C(C)N2CCc3cncnc3C2)o1 (configuration not stated) | -3.77
CNc1cnc(CC2COCCN(Cc3ccccc3)C2)cn1 (configuration not stated) | -2.53
COCCOCC(=O)Nc1ccc(C)cc1F | -7.66
CCS(=O)(=O)N1Cc2ccnn2CC(c2nc(C)no2)C1 (configuration not stated) | -9.51

Structure (SMILES) | cytotoxicity at 70.5 h [%]
CS(=O)(=O)N1CC[C@@H]2[C@@H]1CCN2Cc1ccc2c(c1)OCO2 | -0.795
CC(C)c1ncncc1C(=O)NCCN1CCCCCC1 | -0.207
OCCN(Cc1cccnc1)c1ccc(Br)cn1 | -2.3
Cc1ccc(N2CCCC(NCc3ccsc3)C2)nn1 (configuration not stated) | -4.89
Cc1ccc(CNC(=O)NC2CCCc3c2cnn3CCO)cn1 (configuration not stated) | -11.1
CCN(C)c1ncnc2c1CCN(C(=O)c1cnccn1)CC2 | -12.8
CN(Cc1ncc(-c2ccccc2)o1)C1CCCN(c2cccnn2)C1 (configuration not stated) | 2.02
Cc1ccnc(CC(C)N(C)c2cc(C3CCNCC3)nc(C)n2)c1 (configuration not stated) | -3
COCC1Cn2nnc(-c3cnn(C)c3)c2CN1Cc1ccc(C)o1 (configuration not stated) | -12.2
CCOc1ccc(Cl)c(C(=O)N2CCN(CC(C)(C)O)CC2)n1 | -12.6
CCS(=O)(=O)Nc1ccn(Cc2ccc(F)cc2Cl)n1 | -8.72
CN(C)CCN(Cc1ccc(Cl)cc1)C(=O)c1ccncc1 | -1.83
CCS(=O)(=O)c1ccccc1N1CCC(NC(=O)c2ccc[nH]2)CC1 | -1.59
COCCN1C(=O)CC[C@@H]2[C@@H]1CCN2Cc1c(C)noc1C | -5.73
COc1ccc(Cl)cc1CCNC(=O)NCc1ccncc1 | -0.665
CCCc1ccc(CN2CCN(C(=O)CC(C)C)[C@@H]3CS(=O)(=O)C[C@@H]32)o1 | -9.85
CCN(Cc1cnn(C)c1)C(=O)c1cc2ccccc2c(=O)[nH]1 | -7.09
CCC(=O)N1CC[C@@H](c2ccc3ccccc3c2)[C@H](O)C1 | -10.5
Fc1cnc(N2CCN3C[C@H](Oc4cncnc4)C[C@H]3C2)nc1 | 5.05
CC(=O)NC1CCN(C(=O)Nc2cccc(SC(F)F)c2)CC1 | -0.185
CC(C)Cn1cnnc1C1CCCN1C(=O)c1ccc(F)cc1F (configuration not stated) | -2.82

Structure (SMILES) | cytotoxicity at 70.5 h [%]
COc1ccc(C(C#N)NC(=O)Cc2ccc(F)c(F)c2)c(OC)c1 (configuration not stated) | -3.6
CCNS(=O)(=O)C1CCN(C(=O)c2ccc(CC)o2)C1 (configuration not stated) | -9.53
Cc1ccc(S(=O)(=O)N2C[C@H]3C[C@H](NC(=O)c4ccccn4)[C@H]3C2)cc1 | 56.3
Cc1cnc(NCCCN2CCCCC2CO)nc1 (configuration not stated) | -1.85
CSCCC(NC(=O)C1CC1)C(=O)N(C)Cc1ccsc1 (configuration not stated) | 10.7
COc1ccc(C(=O)N2CCC(Nc3cccnn3)CC2)c(OC)c1 | -6.9
N#CC(Sc1nnnn1C1CCOCC1)C1CCCCC1 (configuration not stated) | -3.62
COCc1ncc(CN2CC[C@@](O)(COC)C(C)(C)C2)cn1 | -18.6
O=C(NCCNc1ncccn1)C1CC(=O)N(CC2CC2)C1 (configuration not stated) | 16.4
CN(C)C(=O)CO[C@H]1CN(Cc2ccsc2)[C@@H]2COC[C@H]12 | -1.85
CC(C)CC1COCCN1C(=O)Cc1cccs1 (configuration not stated) | -4.92
O=C(Cc1ccc2c(c1)OCO2)N1CCN(c2cnccn2)CC1 | -8.46
COc1ccc(COCC(O)CNC(=O)c2cccnc2)cc1 (configuration not stated) | 32.7
COc1ccc(C)cc1CN1CCn2cccc2C1C (configuration not stated) | -1.19
CCOCCC(=O)Nc1cccc(Cl)c1COC | -2.76
Fc1cccc(CN2CCC(c3noc(-c4ccncc4)n3)CC2)c1F | 2.58
CC(=O)NCCC1CCCCN1S(=O)(=O)c1ccc2ccccc2c1 (configuration not stated) | 4.83
Cc1cc(N(C)C)nc(C2COCCN2Cc2nccn2C)n1 (configuration not stated) | -6.31
CC(NCc1cccc(C#N)c1)c1ccccn1 (configuration not stated) | -6.12
